# Data as given in article PMC12010937, “Evaluation of FXR Activity in Pollutants Identified in Sewage Sludge and Subsequent in Vitro and in Vivo Characterization of Metabolic Effects of Triphenyl Phosphate” (Environmental Health Perspectives, 2025).
# Read-outs that look alike come from different tables or passages of the source.
# Tested on: C57BL/6N mice
# Conditions: TPHP-H group, liver
# [1] = adduct [M+Na]+, first of two TG 52:3 lines
# [2] = adduct [M+Na]+, second of two TG 52:3 lines
smiles,measurement,setting,value
"O=P(Oc1ccccc1)(Oc1ccccc1)Oc1ccccc1 [TPHP, triphenyl phosphate]",Z-score of CAR 6:0,adduct [M+H]+,0.97
same,Z-score of CAR 10:0,adduct [M+H]+,0.72
same,Z-score of CAR 12:0,adduct [M+H]+,0.32
same,Z-score of CAR 16:2,adduct [M+H]+,1.03
same,Z-score of CAR 18:2,adduct [M+H]+,1.01
same,Z-score of CAR 18:4,adduct [M+H]+,0.35
same,Z-score of CAR 20:4,adduct [M+H]+,0.29
same,Z-score of NAE 14:0,adduct [M+H]+,-0.67
same,Z-score of NAE 20:5,adduct [M+H]+,-0.01
same,Z-score of PC 40:6,adduct [M+H]+,-0.91
same,Z-score of PS 36:4,adduct [M+H]+,0.46
same,Z-score of SM 27:5;O2,adduct [M+H]+,0.61
same,Z-score of SM 28:3;O3,adduct [M+H]+,0.70
same,Z-score of SM 31:3;O3,adduct [M+H]+,-0.94
same,Z-score of SM 41:2;O2,adduct [M+H]+,0.44
same,average intensity of CAR 6:0,adduct [M+H]+,3598107
same,average intensity of CAR 10:0,adduct [M+H]+,1728654
same,average intensity of CAR 12:0,adduct [M+H]+,2142093
same,average intensity of CAR 16:2,adduct [M+H]+,3030917
same,average intensity of CAR 18:2,adduct [M+H]+,20111001
same,average intensity of CAR 18:4,adduct [M+H]+,9217007
same,average intensity of CAR 20:4,adduct [M+H]+,30801597
same,average intensity of NAE 14:0,adduct [M+H]+,23845
same,average intensity of NAE 20:5,adduct [M+H]+,31668356
same,average intensity of PC 40:6,adduct [M+H]+,6977163
same,average intensity of PS 36:4,adduct [M+H]+,1402007
same,average intensity of SM 27:5;O2,adduct [M+H]+,18765822
same,average intensity of SM 28:3;O3,adduct [M+H]+,1926974
same,average intensity of SM 31:3;O3,adduct [M+H]+,284040
same,average intensity of SM 41:2;O2,adduct [M+H]+,8959905
same,Z-score of BMP 25:4,adduct [M+NH4]+,-0.92
same,Z-score of BMP 30:5,adduct [M+NH4]+,-0.72
same,Z-score of BMP 38:4,adduct [M+NH4]+,-0.80
same,Z-score of PG 21:2,adduct [M+NH4]+,-0.95
same,Z-score of PI 39:10,adduct [M+NH4]+,-0.92
same,Z-score of TG 48:11,adduct [M+NH4]+,-0.82
same,Z-score of TG 55:4,adduct [M+NH4]+,1.02
same,average intensity of BMP 25:4,adduct [M+NH4]+,4738753
same,average intensity of BMP 30:5,adduct [M+NH4]+,17597
same,average intensity of BMP 38:4,adduct [M+NH4]+,940807
same,average intensity of PG 21:2,adduct [M+NH4]+,816725
same,average intensity of PI 39:10,adduct [M+NH4]+,61034
same,average intensity of TG 48:11,adduct [M+NH4]+,5429634
same,average intensity of TG 55:4,adduct [M+NH4]+,11320635
same,Z-score of Cer 42:1;O2,adduct [M+Na]+,-0.92
same,Z-score of Cer 64:6;O2,adduct [M+Na]+,0.66
same,Z-score of DG 19:1,adduct [M+Na]+,-0.58
same,Z-score of DG 26:5,adduct [M+Na]+,-0.58
same,Z-score of DG 26:6,adduct [M+Na]+,-0.75
same,Z-score of PC 29:5,adduct [M+Na]+,-0.84
same,Z-score of PC 38:6,adduct [M+Na]+,-0.76
same,Z-score of PC 42:9,adduct [M+Na]+,-0.79
same,Z-score of PS 40:7,adduct [M+Na]+,0.85
same,Z-score of TG 52:2,adduct [M+Na]+,0.76
same,Z-score of TG 52:4,adduct [M+Na]+,0.88
same,average intensity of Cer 42:1;O2,adduct [M+Na]+,679331
same,average intensity of Cer 64:6;O2,adduct [M+Na]+,17434974
same,average intensity of DG 19:1,adduct [M+Na]+,4218
same,average intensity of DG 26:5,adduct [M+Na]+,1190306
same,average intensity of DG 26:6,adduct [M+Na]+,269918
same,average intensity of PC 29:5,adduct [M+Na]+,1903378
same,average intensity of PC 38:6,adduct [M+Na]+,3451074
same,average intensity of PC 42:9,adduct [M+Na]+,130359
same,average intensity of PS 40:7,adduct [M+Na]+,5213900
same,average intensity of TG 52:2,adduct [M+Na]+,10933392
same,average intensity of TG 52:4,adduct [M+Na]+,3390540
same,Z-score of TG 52:3,[1],0.89
same,average intensity of TG 52:3,[1],1451015
same,Z-score of TG 52:3,[2],0.90
same,average intensity of TG 52:3,[2],11832628
same,Z-score of Cer 40:1;O2,adduct [M-H]-,-0.86
same,Z-score of Cer 41:1;3O(2OH),adduct [M-H]-,-0.76
same,Z-score of Cer 42:1;3O(2OH),adduct [M-H]-,-0.75
same,Z-score of Cer 43:1;3O(2OH),adduct [M-H]-,-0.75
same,Z-score of FA 10:1,adduct [M-H]-,-0.63
same,Z-score of FA 14:2,adduct [M-H]-,0.87
same,Z-score of FA 16:2;O,adduct [M-H]-,0.12
same,Z-score of FA 19:2;O2,adduct [M-H]-,0.47
same,Z-score of PG 34:2,adduct [M-H]-,-0.59
same,Z-score of PG 44:12,adduct [M-H]-,-0.58
same,Z-score of PI 36:3,adduct [M-H]-,-0.62
same,Z-score of PI 38:4,adduct [M-H]-,0.28
same,average intensity of Cer 40:1;O2,adduct [M-H]-,112540
same,average intensity of Cer 41:1;3O(2OH),adduct [M-H]-,650455
same,average intensity of Cer 42:1;3O(2OH),adduct [M-H]-,109690
same,average intensity of Cer 43:1;3O(2OH),adduct [M-H]-,95819
same,average intensity of FA 10:1,adduct [M-H]-,124984
same,average intensity of FA 14:2,adduct [M-H]-,2337946
same,average intensity of FA 16:2;O,adduct [M-H]-,718403
same,average intensity of FA 19:2;O2,adduct [M-H]-,6586718
same,average intensity of PG 34:2,adduct [M-H]-,89164
same,average intensity of PG 44:12,adduct [M-H]-,16526
same,average intensity of PI 36:3,adduct [M-H]-,224637
same,average intensity of PI 38:4,adduct [M-H]-,36494581
